Reference: the NIST ThermoML archive (doi:10.1016/j.jct.2012.02.007)
Numbers after ± are expanded uncertainties.

Assays:
[1] = mn = molality of the nth substance listed, in mol/kg; settings: 101.3 kPa, Liquid; for speed of sound: Sing-around technique in a fixed-path interferometer; for mass density: Vibrating tube method
[2] = osmotic coefficient (dimensionless); mn = molality of the nth substance listed, in mol/kg; settings: 323.15 K, Liquid, Vapor Pressure Osmometer

CCCCn1cc[n+](C)c1.N#CN=C=[N-] [1-butyl-3-methylimidazolium dicyanamide] + CCCCO
[1]
Settings	mass density, 293.15 K [kg/m3]	mass density, 308.15 K [kg/m3]	mass density, 323.15 K [kg/m3]	speed of sound, 293.15 K [m/s]	speed of sound, 308.15 K [m/s]	speed of sound, 323.15 K [m/s]
m1 = 0.0564	812.2 ± 0.12	800.77 ± 0.12	788.99 ± 0.12	1261.4 ± 0.9	1211.3 ± 0.8	1161.9 ± 0.8
m1 = 0.1049	814.3 ± 0.12	802.91 ± 0.12	791.18 ± 0.12	1264.8 ± 0.9	1214.9 ± 0.8	1165.8 ± 0.8
m1 = 0.156	816.47 ± 0.12	805.11 ± 0.12	793.43 ± 0.12	1268.3 ± 0.9	1218.6 ± 0.8	1169.6 ± 0.8
m1 = 0.204	818.49 ± 0.12	807.15 ± 0.12	795.51 ± 0.12	1271.7 ± 0.9	1222 ± 0.9	1173.1 ± 0.8
m1 = 0.2581	820.7 ± 0.12	809.41 ± 0.12	797.8 ± 0.12	1275.2 ± 0.9	1225.8 ± 0.9	1177.1 ± 0.8
m1 = 0.5068	830.31 ± 0.12	819.12 ± 0.12	807.68 ± 0.12	1290.3 ± 0.9	1241.6 ± 0.9	1193.7 ± 0.9
m1 = 0.7637	839.41 ± 0.12	828.32 ± 0.12	817.01 ± 0.13	1304.9 ± 0.9	1256.7 ± 0.9	1209.3 ± 0.9
m1 = 1.006	847.36 ± 0.12	836.34 ± 0.13	825.14 ± 0.13	1317.6 ± 1	1270 ± 0.9	1223.2 ± 0.9
m1 = 1.271	855.38 ± 0.13	844.45 ± 0.13	833.35 ± 0.13	1330.6 ± 1	1283.5 ± 1	1237.4 ± 1
m1 = 1.516	862.28 ± 0.13	851.41 ± 0.14	840.4 ± 0.14	1341.9 ± 1	1295.3 ± 1	1249.7 ± 1
m1 = 1.766	868.85 ± 0.14	858.05 ± 0.14	847.12 ± 0.14	1352.9 ± 1.1	1306.7 ± 1	1261.6 ± 1
m1 = 2.004	874.76 ± 0.15	864.01 ± 0.15	853.15 ± 0.15	1362.9 ± 1.1	1317.1 ± 1.1	1272.3 ± 1.1
m1 = 2.509	886.17 ± 0.16	875.53 ± 0.16	864.81 ± 0.17	1382.3 ± 1.1	1337.5 ± 1.1	1293.4 ± 1.1
m1 = 2.993	895.87 ± 0.18	885.33 ± 0.18	874.72 ± 0.18	1399.5 ± 1.2	1355.1 ± 1.2	1311.7 ± 1.2
m1 = 3.535	905.44 ± 0.2	895.01 ± 0.2	884.51 ± 0.2	1416.7 ± 1.3	1373 ± 1.3	1330.2 ± 1.2

[2]
Settings	osmotic coefficient
m1 = 0.0803	0.739 ± 0.015
m1 = 0.1014	0.707 ± 0.016
m1 = 0.2018	0.653 ± 0.017
m1 = 0.31	0.625 ± 0.018
m1 = 0.4166	0.604 ± 0.018
m1 = 0.5175	0.594 ± 0.019
m1 = 0.8182	0.585 ± 0.019
m1 = 1.221	0.564 ± 0.02
m1 = 1.633	0.551 ± 0.02
m1 = 2.026	0.536 ± 0.02
m1 = 2.413	0.528 ± 0.021
m1 = 2.82	0.522 ± 0.021
m1 = 3.306	0.508 ± 0.021

CCCCn1cc[n+](C)c1.N#CN=C=[N-] [1-butyl-3-methylimidazolium dicyanamide] + CCCCCO
[1]
Settings	mass density, 293.15 K [kg/m3]	mass density, 308.15 K [kg/m3]	mass density, 323.15 K [kg/m3]	speed of sound, 293.15 K [m/s]	speed of sound, 308.15 K [m/s]	speed of sound, 323.15 K [m/s]
m1 = 0.0499	816.84 ± 0.24	805.86 ± 0.24	794.56 ± 0.24	1296.1 ± 1.3	1246.2 ± 1.3	1196.7 ± 1.3
m1 = 0.1005	818.99 ± 0.24	808.05 ± 0.24	796.79 ± 0.24	1299.3 ± 1.3	1249.5 ± 1.3	1200.3 ± 1.3
m1 = 0.1579	821.34 ± 0.24	810.43 ± 0.24	799.21 ± 0.24	1302.8 ± 1.3	1253.2 ± 1.3	1204.2 ± 1.3
m1 = 0.2012	823.14 ± 0.25	812.25 ± 0.25	801.07 ± 0.25	1305.5 ± 1.3	1256 ± 1.3	1207.2 ± 1.3
m1 = 0.2575	825.39 ± 0.25	814.53 ± 0.25	803.38 ± 0.25	1308.7 ± 1.4	1259.4 ± 1.3	1210.8 ± 1.3
m1 = 0.5093	834.72 ± 0.26	823.96 ± 0.26	812.96 ± 0.26	1322.3 ± 1.4	1273.7 ± 1.4	1225.8 ± 1.4
m1 = 0.7636	843.46 ± 0.27	832.73 ± 0.27	821.84 ± 0.27	1334.4 ± 1.4	1286.4 ± 1.4	1238.6 ± 1.4
m1 = 1.022	851.58 ± 0.29	840.96 ± 0.29	830.18 ± 0.29	1346.7 ± 1.5	1299.3 ± 1.5	1252.8 ± 1.4
m1 = 1.271	858.96 ± 0.3	848.35 ± 0.3	837.65 ± 0.3	1357 ± 1.5	1310.2 ± 1.5	1263.7 ± 1.5
m1 = 1.52	865.82 ± 0.31	855.32 ± 0.31	844.69 ± 0.31	1367.7 ± 1.5	1321.4 ± 1.5	1275.9 ± 1.5
m1 = 1.766	872.07 ± 0.32	861.65 ± 0.32	851.09 ± 0.32	1377 ± 1.5	1331.2 ± 1.5	1286.1 ± 1.5
m1 = 1.982	877.32 ± 0.33	866.91 ± 0.33	856.41 ± 0.33	1385 ± 1.6	1339.5 ± 1.6	1294.8 ± 1.5
m1 = 2.527	889.3 ± 0.36	878.99 ± 0.36	868.61 ± 0.35	1403.6 ± 1.6	1358.9 ± 1.6	1315.1 ± 1.6
m1 = 2.998	898.47 ± 0.38	888.26 ± 0.37	877.98 ± 0.37	1418.4 ± 1.6	1374.3 ± 1.6	1331.1 ± 1.6
m1 = 3.512	907.39 ± 0.4	897.32 ± 0.39	887.14 ± 0.39	1432.6 ± 1.7	1389.6 ± 1.7	1347 ± 1.7

[2]
Settings	osmotic coefficient
m1 = 0.0625	0.784 ± 0.014
m1 = 0.0829	0.719 ± 0.016
m1 = 0.1019	0.669 ± 0.017
m1 = 0.2131	0.627 ± 0.018
m1 = 0.3093	0.596 ± 0.019
m1 = 0.4113	0.582 ± 0.019
m1 = 0.5349	0.566 ± 0.019
m1 = 0.8273	0.537 ± 0.02
m1 = 1.131	0.52 ± 0.021
m1 = 1.443	0.509 ± 0.021
m1 = 1.749	0.502 ± 0.021
m1 = 2.246	0.493 ± 0.022
m1 = 2.756	0.478 ± 0.022
m1 = 3.23	0.458 ± 0.023

CCCCn1cc[n+](C)c1.N#CN=C=[N-] [1-butyl-3-methylimidazolium dicyanamide] + CCCO
[1]
Settings	mass density, 293.15 K [kg/m3]	mass density, 308.15 K [kg/m3]	mass density, 323.15 K [kg/m3]	speed of sound, 293.15 K [m/s]	speed of sound, 308.15 K [m/s]	speed of sound, 323.15 K [m/s]
m1 = 0.0646	807.07 ± 0.12	795.05 ± 0.12	782.64 ± 0.12	1229.5 ± 0.8	1178.7 ± 0.8	1128.5 ± 0.8
m1 = 0.1004	808.7 ± 0.12	796.71 ± 0.12	784.35 ± 0.12	1232.4 ± 0.8	1181.7 ± 0.8	1131.7 ± 0.8
m1 = 0.154	811.09 ± 0.12	799.15 ± 0.12	786.83 ± 0.12	1236.7 ± 0.9	1186.2 ± 0.8	1136.4 ± 0.8
m1 = 0.2041	813.27 ± 0.12	801.36 ± 0.12	789.09 ± 0.12	1240.4 ± 0.9	1190 ± 0.8	1140.4 ± 0.8
m1 = 0.2521	815.21 ± 0.12	803.31 ± 0.12	791.08 ± 0.12	1243.9 ± 0.9	1193.4 ± 0.9	1143.8 ± 0.8
m1 = 0.5071	825.41 ± 0.12	813.67 ± 0.12	801.63 ± 0.13	1261.1 ± 0.9	1211.6 ± 0.9	1162.8 ± 0.9
m1 = 0.7606	834.72 ± 0.12	823.09 ± 0.12	811.21 ± 0.13	1277.2 ± 0.9	1228.3 ± 0.9	1180.1 ± 0.9
m1 = 1.012	843.22 ± 0.12	831.69 ± 0.13	819.94 ± 0.13	1292.2 ± 1	1243.8 ± 0.9	1196.2 ± 0.9
m1 = 1.263	851.11 ± 0.13	839.67 ± 0.13	828.03 ± 0.13	1306.2 ± 1	1258.2 ± 1	1211.2 ± 1
m1 = 1.512	858.43 ± 0.13	847.07 ± 0.14	835.54 ± 0.14	1319.4 ± 1	1271.9 ± 1	1225.3 ± 1
m1 = 1.765	865.25 ± 0.14	853.97 ± 0.14	842.54 ± 0.15	1331.8 ± 1.1	1284.7 ± 1	1238.6 ± 1
m1 = 2.017	871.65 ± 0.15	860.45 ± 0.15	849.11 ± 0.15	1343.6 ± 1.1	1297 ± 1.1	1251.3 ± 1.1
m1 = 2.52	883.38 ± 0.16	872.29 ± 0.17	861.11 ± 0.17	1365.8 ± 1.1	1319.7 ± 1.1	1274.6 ± 1.1
m1 = 2.826	889.83 ± 0.17	878.84 ± 0.18	867.75 ± 0.18	1377.8 ± 1.2	1332.3 ± 1.2	1287.8 ± 1.2
m1 = 3.488	902.23 ± 0.2	891.37 ± 0.2	880.45 ± 0.2	1401.8 ± 1.3	1357.1 ± 1.2	1313.3 ± 1.2

[2]
Settings	osmotic coefficient
m1 = 0.0543	0.973 ± 0.012
m1 = 0.0899	0.898 ± 0.013
m1 = 0.1032	0.871 ± 0.013
m1 = 0.2057	0.816 ± 0.014
m1 = 0.3018	0.78 ± 0.014
m1 = 0.4097	0.748 ± 0.015
m1 = 0.5035	0.737 ± 0.015
m1 = 0.8276	0.714 ± 0.016
m1 = 1.24	0.691 ± 0.016
m1 = 1.64	0.668 ± 0.017
m1 = 2.049	0.646 ± 0.017
m1 = 2.45	0.634 ± 0.018
m1 = 2.837	0.616 ± 0.018
m1 = 3.324	0.599 ± 0.019
